# Measured values from patent US8008292B2, “Condensed benzamide compounds and inhibitors of vanilloid receptor subtype 1 (VR1) activity” (Japan Tobacco Inc., priority 2004, dated 2011).
# Counter-ions that a name gives are not always drawn.
# Target: T1, human VR1 (Homo sapiens, UniProt Q8NER1)
# T1 construct: expressed in transfected cells
# Assay: Inhibition of Ca2+ entry in cells caused by proton, in rat glioma (C6BU1) cells stably expressing human VR1 (Fura 2 fluorescence)
# Format: cell-based
# Conditions: inhibition of proton-induced Ca2+ entry
# How it was run: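 Fura 2-loaded C6BU1 cells in 20 mM MES buffer pH 6.8 with added Ca2+ were preincubated 10 min with compound (final 1 μM to 0.1 nM, 1% DMSO). Proton stimulation brought pH to 5.5. Fluorescence rise was measured, and IC50 was derived from % inhibition versus DMSO control.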
# T1 sequence (Q8NER1 whole entry): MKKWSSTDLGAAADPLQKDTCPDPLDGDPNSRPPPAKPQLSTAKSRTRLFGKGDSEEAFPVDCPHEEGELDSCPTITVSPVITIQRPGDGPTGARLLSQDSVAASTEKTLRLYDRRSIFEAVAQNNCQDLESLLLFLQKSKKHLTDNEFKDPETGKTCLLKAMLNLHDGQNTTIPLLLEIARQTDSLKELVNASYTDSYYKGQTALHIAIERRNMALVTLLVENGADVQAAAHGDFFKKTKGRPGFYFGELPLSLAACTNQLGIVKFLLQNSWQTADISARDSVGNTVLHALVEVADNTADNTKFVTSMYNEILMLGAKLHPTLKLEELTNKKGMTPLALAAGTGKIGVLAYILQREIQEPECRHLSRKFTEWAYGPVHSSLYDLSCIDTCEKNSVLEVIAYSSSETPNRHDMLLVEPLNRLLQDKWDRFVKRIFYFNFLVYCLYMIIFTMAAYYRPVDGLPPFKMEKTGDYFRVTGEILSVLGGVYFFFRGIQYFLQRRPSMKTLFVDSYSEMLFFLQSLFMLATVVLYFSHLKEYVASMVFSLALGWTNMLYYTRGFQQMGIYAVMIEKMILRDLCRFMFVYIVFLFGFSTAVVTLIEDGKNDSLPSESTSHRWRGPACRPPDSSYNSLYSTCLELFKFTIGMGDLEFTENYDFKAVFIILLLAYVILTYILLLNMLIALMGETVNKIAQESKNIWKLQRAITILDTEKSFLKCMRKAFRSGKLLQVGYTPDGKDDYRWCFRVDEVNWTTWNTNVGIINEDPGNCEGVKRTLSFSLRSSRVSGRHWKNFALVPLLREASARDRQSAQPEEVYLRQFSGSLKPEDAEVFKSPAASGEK
row,Compound,IC50 [nM]
1,"CC(O)c1cnc(N2CCOc3c(C(=O)Nc4ccc(OC(F)(F)F)cc4)cccc32)c(Cl)c1 (single isomer, unassigned; (+)) [Example 2-14, (+)-N-(4-trifluoromethoxyphenyl)-4-{3-chloro-5-(1-hydroxyethyl)pyridin-2-yl}-3,4-dihydro-2H-benzo[1,4]oxazine-8-carboxamide]",< 100
2,O=C(Nc1ccc(C(F)(F)F)cc1)c1cccc2c1OCCN2c1ncc(F)cc1F [Example 1-150],< 100
3,O=C(Nc1ccc(C(F)(F)F)cn1)c1cccc2c1OCCN2c1ncccc1Cl [Example 1-029],< 100
4,"Cc1ccc(N2c3cccc(C(=O)Nc4ccc(C(F)(F)F)cc4)c3OC[C@@H]2CO)nc1 [Example 4-08, (S)-4-(5-picoline-2-yl)-3-hydroxylmethyl-N-(4-trifluoromethylphenyl)-3,4-dihydro-2H-benzo[1,4]oxazine-8-carboxamide]",< 100
5,O=C(Nc1ccc(OC(F)(F)F)c(Cl)c1)c1cccc2c1OC[C@H](CO)N2c1ncccc1Cl [Example 4-11],< 100
6,Cc1ccc(N2CCOc3c(C(=O)Nc4ccc(OCC(C)C)c(C(N)=O)c4)cccc32)nc1 [Example 1-075],100 to 1000
7,Cc1ccc(NC(=O)c2cccc3c2OCCN3c2ncccc2Cl)cc1 [Example 1-009],< 100
8,CC(C)Oc1ccc(NC(=O)c2cccc3c2OCCN3c2ncccc2Cl)cc1C(F)(F)F [Example 1-055],< 100
9,O=C(Nc1ccc(F)c(C(F)(F)F)c1)c1cccc2c1OCCN2c1ncccc1Cl [Example 1-053],< 100
10,O=C(Nc1ccc(C(F)(F)F)nc1)c1cccc2c1OCCN2c1ncc(CO)cc1Cl [Example 2-16],< 100
11,COCC1CCCCN1c1ccc(NC(=O)c2cccc3c2OCCN3c2ccc(C)cn2)cc1F (stereo not drawn) [Example 1-090],< 100
12,O=C(Nc1cc(Cl)c(Cl)c(Cl)c1)c1cccc2c1OCCN2c1ncc(CO)cc1Cl [Example 2-21],< 100
13,Cc1ccc(N2CCOc3c(C(=O)Nc4ccc(N(C)C)c(F)c4)cccc32)nc1 [Example 1-163],< 100
14,Cc1ccc(N2CCOc3c(C(=O)NN4CCC(C(C)(C)C)CC4)cccc32)nc1 [Example 1-152],100 to 1000
15,Cc1cccnc1N1CCOc2c(C(=O)Nc3ccc(C(C)(C)C)cc3)cccc21 [Example 1-047],< 100
16,O=C(O)c1cnc(N2CCOc3c(C(=O)Nc4ccc(OC(F)(F)F)c(Cl)c4)cccc32)c(Cl)c1 [Example 1-195],100 to 1000
17,CC(C)(C)c1ccc(NC(=O)c2cc(Cl)cc3c2OCCN3c2ncccc2Cl)cc1 [Example 1-020],< 100
18,O=C(Nc1ccc(Br)c(Cl)c1)c1cccc2c1OC[C@H](CO)N2c1ncccc1Cl [Example 4-19],< 100
19,O=C(O)c1cnc(N2CCOc3c(C(=O)Nc4ccc(C(F)(F)F)cc4)cccc32)c(Cl)c1 [Example 1-136],< 100
20,Cc1ccc(N2CCOc3c(C(=O)Nc4ccc(Cl)nc4)cccc32)nc1 [Example 1-093],100 to 1000
21,O=C(Nc1ccc(SC(F)(F)F)cc1)c1cccc2c1OCCN2c1ncc(CO)cc1Cl [Example 2-32],< 100

row,Compound,IC50 [nM]
1,CCOc1ccc(N2CCOc3c(C(=O)Nc4ccc(C(F)(F)F)cc4)cccc32)nc1 [Example 1-144],< 100
2,Cc1ccc(N2CCOc3c(C(=O)N[C@H]4CC[C@H](COC(C)(C)C)CC4)cccc32)nc1 [Example 1-186],< 100
3,O=C(O)c1cnc(N2CCOc3c(C(=O)Nc4ccc(C(F)(F)F)c(F)c4)cccc32)c(Cl)c1 [Example 1-131],100 to 1000
4,"CC(C)(C)c1ccc(NC(=O)c2cccc3c2OCCN3c2ncccc2Cl)cc1 [Example 1-001, N-(4-tert-butylphenyl)-4-(3-chloropyridin-2-yl)-3,4-dihydro-2H-benzo[1,4]oxazine-8-carboxamide]",< 100
5,CC(C)(C)c1ccc(NC(=O)c2cccc3c2OCCN3c2ncc(CO)cc2Cl)cc1 [Example 2-36],< 100
6,O=C(Nc1ccc2cccnc2c1)c1cccc2c1OCCN2c1ncccc1Cl [Example 1-032],100 to 1000
7,CCOC1CCN(c2ccc(NC(=O)c3cccc4c3OCCN4c3ccc(C)cn3)cc2F)CC1 [Example 1-068],< 100
8,O=C(Nc1ccc(C(F)(F)F)cc1)c1cccc2c1OC[C@H](CO)N2c1ccccc1Cl [Example 7-05],< 100
9,COc1ccc(NC(=O)c2cccc3c2OC[C@H](CO)N3c2ncccc2Cl)cc1C(F)(F)F [Example 4-24],< 100
10,"O=C(Nc1ccc(OC(F)(F)F)cc1)c1cccc2c1OC[C@H](CO)N2c1ncccc1Cl [Example 4-03, (S)-4-(3-chloropyridin-2-yl)-3-hydroxylmethyl-N-(4-trifluoromethoxyphenyl)-3,4-dihydro-2H-benzo[1,4]oxazine-8-carboxamide]",< 100
11,Cc1ccc(N2CCOc3c(C(=O)Nc4ccc(OCC(C)C)c(C(=O)N(C)C)c4)cccc32)nc1 [Example 1-077],100 to 1000
12,O=C(Nc1ccc(C(F)(F)F)cc1)c1cccc2c1OCCN2c1ccc(Cl)cn1 [Example 1-123],< 100
13,O=C(Nc1ccc(F)cc1)c1cccc2c1OCCN2c1ncccc1Cl [Example 1-026],100 to 1000
14,CN(C)c1ccc(NC(=O)c2cccc3c2OC[C@H](CO)N3c2ncccc2Cl)cc1F [Example 4-12],< 100
15,Cc1cnc(N2c3cccc(C(=O)Nc4ccc(OCC(C)C)c(F)c4)c3OC[C@@H]2CO)s1 [Example 6-6],< 100
16,COCc1ccc(N2CCOc3c(C(=O)Nc4ccc(C(F)(F)F)cc4)cccc32)nc1 [Example 1-143],< 100
17,"O=C(Nc1ccc(C(F)(F)F)cc1)c1cccc2c1OCCN2c1ccc(Cl)nn1 [Example 5-4, 4-(6-chloropyridazine-3-yl)-N-(4-trifluoromethylphenyl)-3,4-dihydro-2H-benzo[1,4]oxazine-8-carboxamide]",< 100
18,CCOc1ccc(N2CCOc3c(C(=O)Nc4ccc(OC(F)(F)F)cc4)cccc32)nc1 [Example 1-198],100 to 1000
19,Cc1ccc(N2c3cccc(C(=O)Nc4ccc(OC(C)C)c(F)c4)c3OC[C@@H]2CO)nc1 [Example 4-46],< 100
20,NC(=O)[C@H]1COc2c(C(=O)Nc3ccc(C(F)(F)F)cc3)cccc2N1c1ncccc1Cl [Example 1-233],< 100

# Continued, values first:
row,IC50 [nM],Compound
1,< 100,Cc1ccc(N2c3cccc(C(=O)Nc4ccc(C(F)(F)F)cc4Cl)c3OC[C@@H]2CO)nc1 [Example 4-40]
2,100 to 1000,CC(C)(C)c1ccc(NC(=O)c2cccc3c2OCCN3c2cccnc2)cc1 [Example 1-061]
3,100 to 1000,"O=C(Nc1ccc(OC(F)(F)F)cc1)c1cccc2c1OC[C@@H](CO)N2c1ncccc1Cl [Example 4-01, (R)-4-(3-chloropyridin-2-yl)-3-hydroxylmethyl-N-(4-trifluoromethoxyphenyl)-3,4-dihydro-2H-benzo[1,4]oxazine-8-carboxamide]"
4,100 to 1000,O=C(OCc1ccccc1)c1cccnc1N1CCOc2c(C(=O)Nc3ccc(OC(F)(F)F)cc3)cccc21 [Example 1-207]
5,< 100,CC(C)COc1ccc(NC(=O)c2cccc3c2OC[C@H](CO)N3c2ncccc2Cl)cc1C(F)(F)F [Example 4-33]
6,< 100,CC(C)Oc1ccc(NC(=O)c2cccc3c2OCCN3c2ncc(CO)cc2Cl)cc1F [Example 2-34]
7,< 100,Cc1ccc(N2c3cccc(C(=O)Nc4ccc(N5CCOCC5)c(F)c4)c3OC[C@@H]2CO)nc1 [Example 4-47]
8,< 100,Cc1ccc(N2CCOc3c(C(=O)Nc4ccc(N5CCOCC5)c(F)c4)cccc32)nc1 [Example 1-157]
9,< 100,Cc1ccc(N2CCOc3c(C(=O)N[C@H]4CC[C@H](COCC(C)C)CC4)cccc32)nc1 [Example 1-189]
10,< 100,Cc1ccc(N2CCOc3c(C(=O)N[C@H]4CC[C@H](C(C)C)CC4)cccc32)nc1 [Example 1-191]
11,< 100,O=C(Nc1ccc(Br)c(F)c1)c1cccc2c1OC[C@H](CO)N2c1ncccc1Cl [Example 4-36]
12,< 100,O=C(Nc1ccc(N2CCCCC2)c(F)c1)c1cccc2c1OCCN2c1ncccc1Cl [Example 1-095]
13,< 100,CN1CCCc2ccc(NC(=O)c3cccc4c3OCCN4c3ncccc3Cl)cc21 [Example 1-033]
14,< 100,COc1cnc(N2c3cccc(C(=O)Nc4ccc(C(F)(F)F)cc4)c3OC[C@@H]2CO)c(Cl)c1 [Example 4-25]
15,< 100,O=C(Nc1ccc(OC(F)(F)F)cc1)c1cccc2c1OCCN2c1ncccc1OCc1ccccc1 [Example 1-209]
16,100 to 1000,O=C(Nc1ccc(C(F)(F)F)cc1)c1cccc2c1OCCN2c1ccc(OCCO)cn1 [Example 1-153]
17,< 100,CC(C)(C)c1ccc(NC(=O)c2cccc3c2OCCN3c2ccc(CO)cn2)cc1 [Example 2-28]
18,< 100,Cc1cnc(N2c3cccc(C(=O)Nc4ccc(C(F)(F)F)nc4)c3OC[C@@H]2CO)s1 [Example 6-10]
19,< 100,CCCOc1ccc(NC(=O)c2cccc3c2OCCN3c2ccc(C)cn2)cc1F [Example 1-085]
20,< 100,"CC(C)(C)c1ccc(NC(=O)c2cccc3c2OCCCN3c2ncccc2Cl)cc1 [Example 1-005, N-(4-tert-butylphenyl)-9-(3-chloropyridin-2-yl)-6,7,8,9-tetrahydro-5-oxa-9-aza-benzocycloheptene-4-carboxamide]"
21,< 100,Cc1ccc(N2CCOc3c(C(=O)N[C@H]4CC[C@H](OC5CCCCC5)CC4)cccc32)nc1 [Example 1-107]
22,< 100,"Cc1cnc(N2c3cccc(C(=O)Nc4ccc(Cl)c(Cl)c4)c3OC[C@@H]2CO)s1 [Example 6-3, (S)-N-(3,4-dichlorophenyl)-3-hydroxymethyl-4-(5-methylthiazol-2-yl)-3,4-dihydro-2H-benzo[1,4]oxazine-8-carboxamide hydrochloride]"
23,100 to 1000,CCOC(=O)CO[C@H]1CC[C@H](NC(=O)c2cccc3c2OCCN3c2ccc(C)cn2)CC1 [Example 1-176]
24,100 to 1000,N#Cc1ccc(N2CCOc3c(C(=O)Nc4ccc(OC(F)(F)F)cc4)cccc32)nc1 [Example 1-218]
25,100 to 1000,Cc1ccc(N2CCOc3c(C(=O)N[C@H]4CC[C@H](OCc5ccccc5)CC4)cccc32)nc1 [Example 1-190]
